Key:
Type in all cases: biochemical
Src = molecular target: T1, Src (Homo sapiens, UniProt P12931); test: Src kinase assay, IMAP fluorescence polarization; settings: 50 or 100 μM ATP, average
T1 construct: purchased Life Technologies
In short: (§1)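 IMAP FP format: 0.6-13 nM kinase, 100 nM FAM-peptide substrate, 50 or 100 μM ATP, Tris pH 7.2/4 mM MgCl2/0.2% BSA/2 mM DTT, 60 min RT. Compounds 0.00005-1 μM. Stop with 0.25% IMAP binding reagent (buffer A:B 85:15; 30:70 for Src).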

SIK2 = molecular target: T2, SIK2 (Homo sapiens, UniProt Q9H0K1); test: SIK2 kinase assay, IMAP fluorescence polarization; settings: 50 or 100 μM ATP, average
T2 construct: purchased Life Technologies
T2 sequence (Q9H0K1 whole entry): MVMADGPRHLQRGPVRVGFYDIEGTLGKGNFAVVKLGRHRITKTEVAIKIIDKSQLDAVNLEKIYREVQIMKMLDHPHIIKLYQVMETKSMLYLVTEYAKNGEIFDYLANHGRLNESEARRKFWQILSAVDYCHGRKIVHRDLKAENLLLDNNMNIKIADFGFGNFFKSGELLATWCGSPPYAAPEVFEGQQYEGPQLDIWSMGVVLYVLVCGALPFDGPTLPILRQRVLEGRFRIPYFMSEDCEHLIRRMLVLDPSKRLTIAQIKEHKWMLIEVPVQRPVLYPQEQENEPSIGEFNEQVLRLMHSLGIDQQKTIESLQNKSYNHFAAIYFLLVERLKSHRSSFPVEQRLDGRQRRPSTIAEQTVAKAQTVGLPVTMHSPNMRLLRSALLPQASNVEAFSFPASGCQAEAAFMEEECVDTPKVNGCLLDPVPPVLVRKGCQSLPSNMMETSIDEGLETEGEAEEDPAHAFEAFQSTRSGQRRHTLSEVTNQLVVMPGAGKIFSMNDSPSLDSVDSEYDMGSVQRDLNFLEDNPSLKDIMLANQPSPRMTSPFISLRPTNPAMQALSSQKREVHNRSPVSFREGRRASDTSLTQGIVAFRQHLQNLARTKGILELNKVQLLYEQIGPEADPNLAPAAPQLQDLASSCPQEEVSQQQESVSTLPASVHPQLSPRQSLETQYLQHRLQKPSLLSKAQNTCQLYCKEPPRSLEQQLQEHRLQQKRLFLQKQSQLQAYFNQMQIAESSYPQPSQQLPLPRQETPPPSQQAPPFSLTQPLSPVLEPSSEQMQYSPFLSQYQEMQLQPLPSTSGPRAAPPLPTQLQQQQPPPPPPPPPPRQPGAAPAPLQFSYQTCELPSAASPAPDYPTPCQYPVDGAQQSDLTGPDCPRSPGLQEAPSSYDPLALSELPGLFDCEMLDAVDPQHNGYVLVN
In short: as §1

EPHA2 = molecular target: T3, EPHA2 (Homo sapiens, UniProt P29317); test: EPHA2 kinase assay, IMAP fluorescence polarization; settings: 50 or 100 μM ATP, Tris pH 8.5, average
T3 construct: purchased Life Technologies

SIK3 = molecular target: T4, SIK3 (Homo sapiens, UniProt Q9Y2K2); test: SIK3 kinase assay, IMAP fluorescence polarization; settings: 50 or 100 μM ATP, average
T4 construct: purchased Life Technologies
T4 sequence (Q9Y2K2 whole entry): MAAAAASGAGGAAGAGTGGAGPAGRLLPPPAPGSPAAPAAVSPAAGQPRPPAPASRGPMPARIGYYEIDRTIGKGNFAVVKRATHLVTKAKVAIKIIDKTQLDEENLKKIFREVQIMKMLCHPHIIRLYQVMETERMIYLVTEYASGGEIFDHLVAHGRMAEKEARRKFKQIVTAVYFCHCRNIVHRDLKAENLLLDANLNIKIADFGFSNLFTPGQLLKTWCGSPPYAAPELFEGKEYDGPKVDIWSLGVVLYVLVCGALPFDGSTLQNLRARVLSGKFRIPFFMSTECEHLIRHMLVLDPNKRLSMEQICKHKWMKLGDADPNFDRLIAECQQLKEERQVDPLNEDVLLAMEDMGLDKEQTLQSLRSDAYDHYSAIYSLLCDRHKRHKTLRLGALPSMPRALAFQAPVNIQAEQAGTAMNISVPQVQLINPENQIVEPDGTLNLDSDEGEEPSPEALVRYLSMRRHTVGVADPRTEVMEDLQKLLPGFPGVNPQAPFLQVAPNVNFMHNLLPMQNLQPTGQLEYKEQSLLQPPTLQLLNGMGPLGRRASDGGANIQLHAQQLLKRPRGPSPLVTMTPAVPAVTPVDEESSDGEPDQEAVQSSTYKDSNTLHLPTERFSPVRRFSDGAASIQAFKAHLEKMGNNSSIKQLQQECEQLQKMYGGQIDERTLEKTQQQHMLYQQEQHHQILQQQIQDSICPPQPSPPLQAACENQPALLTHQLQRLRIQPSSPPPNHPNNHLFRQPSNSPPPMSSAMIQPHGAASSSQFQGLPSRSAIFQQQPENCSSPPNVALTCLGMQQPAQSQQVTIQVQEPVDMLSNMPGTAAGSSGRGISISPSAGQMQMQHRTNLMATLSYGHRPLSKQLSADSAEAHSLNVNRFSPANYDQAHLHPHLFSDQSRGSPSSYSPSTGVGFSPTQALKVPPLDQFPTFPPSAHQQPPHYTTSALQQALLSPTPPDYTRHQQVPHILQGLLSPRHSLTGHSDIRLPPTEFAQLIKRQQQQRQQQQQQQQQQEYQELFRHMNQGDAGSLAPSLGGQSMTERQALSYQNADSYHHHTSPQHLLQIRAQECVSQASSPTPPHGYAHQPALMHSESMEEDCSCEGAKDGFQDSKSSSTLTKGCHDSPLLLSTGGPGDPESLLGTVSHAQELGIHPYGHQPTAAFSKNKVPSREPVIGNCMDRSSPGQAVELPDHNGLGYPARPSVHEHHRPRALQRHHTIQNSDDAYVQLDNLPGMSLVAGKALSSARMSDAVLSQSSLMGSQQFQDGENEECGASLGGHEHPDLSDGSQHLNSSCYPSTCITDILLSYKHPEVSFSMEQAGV
In short: as §1

Abl = molecular target: T5, Abl (Homo sapiens, UniProt P00519); test: Abl kinase assay, IMAP fluorescence polarization; settings: 50 or 100 μM ATP, average
T5 construct: purchased Life Technologies
T5 sequence (P00519 whole entry): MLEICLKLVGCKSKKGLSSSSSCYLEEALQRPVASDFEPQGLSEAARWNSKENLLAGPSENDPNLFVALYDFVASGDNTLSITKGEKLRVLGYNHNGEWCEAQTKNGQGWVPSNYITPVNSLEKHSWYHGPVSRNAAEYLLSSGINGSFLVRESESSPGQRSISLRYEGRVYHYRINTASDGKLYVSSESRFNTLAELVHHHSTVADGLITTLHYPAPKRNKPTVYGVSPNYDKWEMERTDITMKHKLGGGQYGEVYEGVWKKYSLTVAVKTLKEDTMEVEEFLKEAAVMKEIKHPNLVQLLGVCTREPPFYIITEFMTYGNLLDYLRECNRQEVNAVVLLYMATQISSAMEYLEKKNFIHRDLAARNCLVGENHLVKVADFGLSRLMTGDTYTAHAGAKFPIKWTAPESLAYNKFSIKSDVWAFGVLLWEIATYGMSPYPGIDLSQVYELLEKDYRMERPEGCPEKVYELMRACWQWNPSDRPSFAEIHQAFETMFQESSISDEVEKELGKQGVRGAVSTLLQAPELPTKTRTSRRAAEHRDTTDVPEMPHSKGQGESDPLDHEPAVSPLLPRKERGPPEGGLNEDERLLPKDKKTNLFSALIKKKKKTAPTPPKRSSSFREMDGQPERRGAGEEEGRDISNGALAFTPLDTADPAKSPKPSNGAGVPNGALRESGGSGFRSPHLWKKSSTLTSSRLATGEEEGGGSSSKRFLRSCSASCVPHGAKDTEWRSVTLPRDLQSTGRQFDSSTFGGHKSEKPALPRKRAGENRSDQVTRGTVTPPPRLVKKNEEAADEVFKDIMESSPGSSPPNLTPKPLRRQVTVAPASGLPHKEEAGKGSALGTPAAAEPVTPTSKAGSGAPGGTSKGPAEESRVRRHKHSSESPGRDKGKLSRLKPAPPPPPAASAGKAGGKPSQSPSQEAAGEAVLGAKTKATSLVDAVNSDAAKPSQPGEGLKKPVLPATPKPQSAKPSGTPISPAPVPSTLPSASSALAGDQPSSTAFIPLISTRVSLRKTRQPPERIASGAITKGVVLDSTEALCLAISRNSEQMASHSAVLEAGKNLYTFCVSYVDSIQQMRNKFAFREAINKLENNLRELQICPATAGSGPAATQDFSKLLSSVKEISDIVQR
In short: as §1

SIK1 = molecular target: T6, SIK1 (Homo sapiens, UniProt P57059); test: SIK1 kinase assay, IMAP fluorescence polarization; settings: 50 or 100 μM ATP, average
T6 construct: purchased Life Technologies
T6 sequence (P57059 whole entry): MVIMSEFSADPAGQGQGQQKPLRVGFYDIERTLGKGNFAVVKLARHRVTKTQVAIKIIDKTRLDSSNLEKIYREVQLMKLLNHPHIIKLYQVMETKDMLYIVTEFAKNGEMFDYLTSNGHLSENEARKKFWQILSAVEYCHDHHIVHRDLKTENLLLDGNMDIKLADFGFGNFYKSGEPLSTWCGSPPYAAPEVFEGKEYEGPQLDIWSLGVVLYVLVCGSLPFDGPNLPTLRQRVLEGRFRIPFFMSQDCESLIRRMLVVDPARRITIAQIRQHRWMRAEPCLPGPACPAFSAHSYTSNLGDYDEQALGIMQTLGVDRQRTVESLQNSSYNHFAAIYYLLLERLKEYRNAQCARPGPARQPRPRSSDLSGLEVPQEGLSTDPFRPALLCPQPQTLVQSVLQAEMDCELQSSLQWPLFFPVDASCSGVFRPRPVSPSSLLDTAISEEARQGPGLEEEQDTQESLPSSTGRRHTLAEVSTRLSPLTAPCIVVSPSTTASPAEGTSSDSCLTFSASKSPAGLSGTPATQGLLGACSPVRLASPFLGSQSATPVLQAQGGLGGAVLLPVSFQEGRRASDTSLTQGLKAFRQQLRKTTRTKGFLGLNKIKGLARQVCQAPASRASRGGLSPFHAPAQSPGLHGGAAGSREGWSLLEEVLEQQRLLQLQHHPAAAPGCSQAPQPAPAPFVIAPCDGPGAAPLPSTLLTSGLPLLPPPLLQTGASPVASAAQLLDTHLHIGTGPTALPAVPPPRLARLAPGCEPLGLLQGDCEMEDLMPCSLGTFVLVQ
In short: as §1

T1 sequence (P12931 whole entry): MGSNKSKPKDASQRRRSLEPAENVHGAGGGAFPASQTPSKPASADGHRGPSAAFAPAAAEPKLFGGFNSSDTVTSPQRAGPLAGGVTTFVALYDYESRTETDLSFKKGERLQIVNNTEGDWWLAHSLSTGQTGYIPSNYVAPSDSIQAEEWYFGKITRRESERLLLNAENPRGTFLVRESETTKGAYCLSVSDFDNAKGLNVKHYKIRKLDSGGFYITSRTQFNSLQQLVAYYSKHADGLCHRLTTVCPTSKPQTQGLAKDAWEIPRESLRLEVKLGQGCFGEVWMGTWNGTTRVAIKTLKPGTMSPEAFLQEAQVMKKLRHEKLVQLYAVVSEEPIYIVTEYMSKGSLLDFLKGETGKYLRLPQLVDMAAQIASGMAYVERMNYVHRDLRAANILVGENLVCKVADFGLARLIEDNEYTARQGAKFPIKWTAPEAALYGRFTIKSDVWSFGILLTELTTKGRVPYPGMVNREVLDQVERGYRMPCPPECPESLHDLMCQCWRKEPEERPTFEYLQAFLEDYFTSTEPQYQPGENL

Compound	Ki (Src)	Ki (SIK2)	Ki (EPHA2)	Ki (SIK3)	Ki (Abl)	Ki (SIK1)
Cc1cccc(F)c1-c1cc(NC2CN(C)C2)c2cc(N)ncc2c1 [Example 68, 7-(2-Fluoro-6-methyl-phenyl)-N5-(1-methylazetidin-3-yl)isoquinoline-3,5-diamine]	160 nM	0.1 nM	323 nM	0.993 nM	17.8 nM	0.532 nM
Cc1cccc(F)c1-c1cc(N[C@H]2CCNC2)c2cc(N)ncc2c1 [Example 7, 7-(2-fluoro-6-methyl-phenyl)-N5-[(3S)-pyrrolidin-3-yl]isoquinoline-3,5-diamine]	193 nM	0.0496 nM	199 nM	0.325 nM	5.55 nM	0.414 nM
Cc1cccc(F)c1-c1cc(NC2CCN(C)CC2)c2cc(N)ncc2c1 [Example 54, 7-(2-Fluoro-6-methyl-phenyl)-N5-(1-methyl-4-piperidyl)isoquinoline-3,5-diamine]	103 nM	0.0466 nM	195 nM	0.883 nM	16.1 nM	0.418 nM
Cc1cccc(Cl)c1-c1ccc2c(C(=O)N[C@@H]3CCNC3)c(N)ncc2c1 [Example 42, 3-amino-7-(2-chloro-6-methyl-phenyl)-N-[(3R)-pyrrolidin-3-yl]isoquinoline-4-carboxamide]	202 nM	6.55 nM	173 nM	100 nM	340 nM	17 nM
Cc1cccc(F)c1-c1cc(OC2CNC2)c2cc(N)ncc2c1 [Example 47, 5-(azetidin-3-yloxy)-7-(2-fluoro-6-methyl-phenyl)isoquinolin-3-amine]	731 nM	0.168 nM	1080 nM	2.07 nM	13.5 nM	1.01 nM
Cc1cccc(F)c1-c1cc(NC2CCN(C)CC2)c2ccncc2c1 [Example 103, 7-(2-Fluoro-6-methyl-phenyl)-N-(1-methyl-4-piperidyl)isoquinolin-5-amine]	143 nM	0.296 nM	189 nM	5.01 nM	97.2 nM	2.21 nM
Cc1cccc(F)c1-c1cc(NCC2CNC2)c2cc(N)ncc2c1 [Example 11, N5-(azetidin-3-ylmethyl)-7-(2-fluoro-6-methyl-phenyl)isoquinoline-3,5-diamine]	23.5 nM	0.0672 nM	95.1 nM	0.195 nM	0.921 nM	0.417 nM
Cc1cccc(F)c1-c1cc(C(=O)NC2CCN(C)CC2)c2cc(N)ncc2c1 [Example 116, 3-Amino-7-(2-fluoro-6-methyl-phenyl)-N-(1-methyl-4-piperidyl)isoquinoline-5-carboxamide]	80.2 nM	4.93 nM	47.4 nM	13.8 nM	16.7 nM	8.53 nM
Cc1cccc(F)c1-c1cc(N2CCC[C@@H](N(C)C)C2)c2cc(N)ncc2c1 [Example 84, 5-[(3R)-3-(dimethylamino)-1-piperidyl]-7-(2-fluoro-6-methyl-phenyl)isoquinolin-3-amine]	274 nM	0.0819 nM	> 1000 nM	2.23 nM	49.4 nM	0.409 nM
Cc1cccc(F)c1-c1cc(N[C@H]2CCN(C)C2)c2cc(N)ncc2c1 [Example 70, 7-(2-fluoro-6-methyl-phenyl)-N5-[(3S)-1-methylpyrrolidin-3-yl]isoquinoline-3,5-diamine]	84.8 nM	0.111 nM	74.6 nM	4.14 nM	9.94 nM	0.439 nM
Cc1cccc(F)c1-c1cc(C(=O)NC2CCNCC2)c2cc(N)ncc2c1 [Example 52, 3-Amino-7-(2-fluoro-6-methyl-phenyl)-N-(4-piperidyl)isoquinoline-5-carboxamide]	60 nM	3.09 nM	23.9 nM	11.5 nM	12.1 nM	5.45 nM

More lines, now with the values ahead:

Ki (Src)	Ki (SIK2)	Ki (EPHA2)	Ki (SIK3)	Ki (Abl)	Ki (SIK1)	Compound
1880 nM	2.39 nM	2290 nM	130 nM	101 nM	29.7 nM	Cc1cccc(F)c1-c1cc(N2CCC[C@@H](O)C2)c2cc(N)ncc2c1 [Example 108, (3R)-1-[3-amino-7-(2-fluoro-6-methyl-phenyl)-5-isoquinolyl]piperidin-3-ol]
> 10000 nM	121 nM	> 10000 nM	531 nM	> 10000 nM	266 nM	Cc1cccc(F)c1-c1cc(NC2CCN(C)CC2)c2ccncc2n1 [Example 122, 2-(2-Fluoro-6-methyl-phenyl)-N-(1-methyl-4-piperidyl)-1,7-naphthyridin-4-amine]
617 nM	4.46 nM	> 1000 nM	201 nM	56.4 nM	24.6 nM	Cc1cccc(F)c1-c1cc(N2CCC[C@H](O)C2)c2cc(N)ncc2c1 [Example 107, (3S)-1-[3-amino-7-(2-fluoro-6-methyl-phenyl)-5-isoquinolyl]piperidin-3-ol]
> 10000 nM	6.97 nM	> 1000 nM	78.1 nM	56 nM	55.5 nM	Cc1cccc(F)c1-c1cc(NC2CCOCC2)c2cc(N)ncc2c1 [Example 110, 7-(2-Fluoro-6-methyl-phenyl)-N5-tetrahydropyran-4-yl-isoquinoline-3,5-diamine]
218 nM	0.0748 nM	216 nM	0.349 nM	22.9 nM	0.429 nM	CNc1cc2c(NC3CCNCC3)cc(-c3c(C)cccc3F)cc2cn1 [Example 27, 7-(2-Fluoro-6-methyl-phenyl)-N3-methyl-N5-(4-piperidyl)isoquinoline-3,5-diamine]
539 nM	3.01 nM	302 nM	6.35 nM	92.7 nM	2.95 nM	CCN1CCC(Nc2cc(-c3c(C)cccc3F)cc3cncnc23)CC1 [Example 126, N-(1-Ethyl-4-piperidyl)-6-(2-fluoro-6-methyl-phenyl)quinazolin-8-amine]
45.2 nM	0.19 nM	120 nM	2 nM	10.3 nM	0.618 nM	Cc1cccc(F)c1-c1cc(NC[C@H]2CCN(C)C2)c2cc(N)ncc2c1 [Example 75, 7-(2-fluoro-6-methyl-phenyl)-N5-[[(3R)-1-methylpyrrolidin-3-yl]methyl] isoquinoline-3,5-diamine]
883 nM	5.48 nM	924 nM	35.4 nM	84 nM	17.8 nM	Cc1cccc(F)c1-c1cc(NC(=O)C2CNC2)c2cc(N)ncc2c1 [Example 45, N-[3-amino-7-(2-fluoro-6-methyl-phenyl)-5-isoquinolyl] azetidine-3-carboxamide]
134 nM	0.0539 nM	> 100 nM	0.915 nM	59.1 nM	0.66 nM	Cc1cccc(F)c1-c1cc(OC2CCN(C)CC2)c2cc(N)ncc2c1 [Example 101, 7-(2-Fluoro-6-methyl-phenyl)-5-[(1-methyl-4-piperidyl)oxy]isoquinolin-3-amine]
167 nM	0.329 nM	216 nM	3.1 nM	22.9 nM	1.07 nM	Cc1cccc(F)c1-c1cc(NC[C@H]2CCCN2)c2cc(N)ncc2c1 [Example 12, 7-(2-fluoro-6-methyl-phenyl)-N5-[[(2R)-pyrrolidin-2-yl]methyl]isoquinoline-3,5-diamine]
12.7 nM	0.188 nM	16.6 nM	1.64 nM	2 nM	0.516 nM	Cc1cccc(F)c1-c1cc(NC[C@@H]2CCCN(C)C2)c2cc(N)ncc2c1 [Example 76, 7-(2-fluoro-6-methyl-phenyl)-N5-[[(3S)-1-methyl-3-piperidyl]methyl]isoq uinoline-3,5-diamine]
157 nM	0.18 nM	64.6 nM	1.37 nM	11.1 nM	0.524 nM	Cc1cccc(F)c1-c1cc(NC[C@H]2CCCNC2)c2cc(N)ncc2c1 [Example 2, 7-(2-fluoro-6-methyl-phenyl)-N5-[[(3S)-3-piperidyl]methyl]isoquinoline-3,5-diamine]
41.4 nM	4.41 nM	131 nM	61.4 nM	3.65 nM	11.8 nM	Cc1cccc(F)c1-c1cc(C(=O)NC2CN(C)C2)c2cc(N)ncc2c1 [Example 100, 3-amino-7-(2-fluoro-6-methyl-phenyl)-N-(1-methylazetidin-3-yl)isoquinoline-5-carboxamide]
> 1000 nM	3.11 nM	> 1000 nM	25 nM	> 1000 nM	4.3 nM	Cc1cccc(F)c1-c1cc(NC2CCN(C)CC2)c2cc(N)ncc2c1F [Example 119, 8-fluoro-7-(2-fluoro-6-methyl-phenyl)-N5-(1-methyl-4-piperidyl)isoquinoline-3,5-diamine]
96.2 nM	0.335 nM	65.5 nM	2.92 nM	36.1 nM	0.474 nM	Cc1cccc(Cl)c1-c1cc(NC2CCNCC2)c2cc(N)ncc2c1 [Example 30, 7-(2-Chloro-6-methyl-phenyl)-N5-(4-piperidyl)isoquinoline-3,5-diamine]
